The record followed here is ChEMBL document CHEMBL3039007, “Structure-based identification of OATP1B1/3 inhibitors” (Mol Pharmacol, 2013).

Data set [1] concerns the target T1, Solute carrier organic anion transporter family member 1B1 (Homo sapiens, UniProt Q9Y6L6).
T1 sequence (Q9Y6L6 whole entry): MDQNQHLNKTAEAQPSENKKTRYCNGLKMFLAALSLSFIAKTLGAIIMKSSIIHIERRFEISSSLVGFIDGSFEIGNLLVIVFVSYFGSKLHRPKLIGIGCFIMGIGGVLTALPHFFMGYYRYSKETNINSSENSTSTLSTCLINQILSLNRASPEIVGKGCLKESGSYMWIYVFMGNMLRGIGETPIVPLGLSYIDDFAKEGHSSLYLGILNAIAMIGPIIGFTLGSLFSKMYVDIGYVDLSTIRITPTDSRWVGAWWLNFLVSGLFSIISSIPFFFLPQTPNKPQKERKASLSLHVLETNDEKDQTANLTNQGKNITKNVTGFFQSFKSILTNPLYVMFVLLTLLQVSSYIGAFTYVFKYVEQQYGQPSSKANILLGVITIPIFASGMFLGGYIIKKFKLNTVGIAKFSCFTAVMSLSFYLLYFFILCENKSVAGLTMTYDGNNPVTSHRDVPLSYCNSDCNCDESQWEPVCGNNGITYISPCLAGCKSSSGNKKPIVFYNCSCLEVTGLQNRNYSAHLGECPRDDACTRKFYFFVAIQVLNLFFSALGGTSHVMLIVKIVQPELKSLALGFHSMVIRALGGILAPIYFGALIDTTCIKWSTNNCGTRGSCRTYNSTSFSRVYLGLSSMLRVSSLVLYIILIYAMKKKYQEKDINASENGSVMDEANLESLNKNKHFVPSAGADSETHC
Particulars: chinese hamster, cho, 10 µM.

Data set [2] addresses T2, Solute carrier organic anion transporter family member 1B3 (Homo sapiens, UniProt Q9NPD5).
T2 sequence (Q9NPD5 whole entry): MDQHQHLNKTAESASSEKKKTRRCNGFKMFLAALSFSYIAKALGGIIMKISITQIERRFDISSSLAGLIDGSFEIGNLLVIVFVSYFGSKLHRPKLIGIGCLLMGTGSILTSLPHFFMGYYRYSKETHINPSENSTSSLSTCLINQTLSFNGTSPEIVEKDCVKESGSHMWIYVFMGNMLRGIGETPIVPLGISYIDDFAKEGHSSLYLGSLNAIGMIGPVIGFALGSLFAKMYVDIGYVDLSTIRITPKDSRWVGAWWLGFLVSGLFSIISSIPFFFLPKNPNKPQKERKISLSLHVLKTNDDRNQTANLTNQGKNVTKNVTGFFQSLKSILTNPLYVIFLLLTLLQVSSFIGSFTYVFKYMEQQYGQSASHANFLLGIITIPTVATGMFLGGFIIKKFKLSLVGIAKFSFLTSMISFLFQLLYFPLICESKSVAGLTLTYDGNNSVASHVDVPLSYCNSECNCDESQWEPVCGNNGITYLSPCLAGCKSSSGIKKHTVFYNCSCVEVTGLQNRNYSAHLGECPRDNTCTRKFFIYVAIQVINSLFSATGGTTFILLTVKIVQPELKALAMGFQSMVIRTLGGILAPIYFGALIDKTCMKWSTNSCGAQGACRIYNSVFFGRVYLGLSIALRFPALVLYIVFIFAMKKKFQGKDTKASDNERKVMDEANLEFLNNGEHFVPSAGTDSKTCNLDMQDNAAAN
Particulars: chinese hamster, cho, 10 µM.

As to `C[C@]12C=CC(=O)C=C1CC[C@@H]1[C@@H]2CC[C@]2(C)C(=O)CC[C@@H]12` [ANDROSTENEDONE], the figures for the residual activity in data set [1] and in data set [2] were 128.1% and 104%, respectively.

In the case of `CC(=O)O[C@@H]1CC[C@@]2(C)[C@@H](CC[C@@H]3[C@@H]2CC[C@]2(C)C(=O)CC[C@@H]32)C1` [ANDROSTERONE ACETATE], the figures for the residual activity in data set [1] and in data set [2] were 76.88% and 100.8%, respectively.

Regarding `C/C=C/c1ccc(OC)cc1` [ANETHOLE], the figures for the residual activity in data set [1] and in data set [2] were 89.5% and 124.1%, respectively.

As to `COc1ccc([C@@H](C)C(=O)c2ccc(O)cc2O)cc1` [ANGOLENSIN (R)], the residual activity (usually the signal under treatment as a percentage of the control signal) in data set [1] turned out to be 114.1%; in data set [2], 126.8%.

As to `COc1ccc2c(=O)c(CC(=O)O)coc2c1` [ANHYDROBRAZILIC ACID], the residual activity worked out at 56.09% in data set [1] and 76.12% in data set [2].

On to `COc1ccc(C2C(=O)c3ccccc3C2=O)cc1` [ANISINDIONE], for which the values for the residual activity in data set [1] and in data set [2] were 74.63% and 75.63%, respectively.

With `COc1ccc(C[C@H]2NC[C@H](O)[C@H]2OC(C)=O)cc1` [ANISOMYCIN], the residual activity in data set [1] came out at 81.33%; in data set [2] it was 81.11%.

Consider `O=C(O)c1c2ccccc2cc2ccccc12` [ANTHRACENE-9-CARBOXYLIC ACID], for which the results for the residual activity in data set [1] and in data set [2] were 95.94% and 87.88%, respectively.

`O=C1c2c(O)cccc2Cc2cccc(O)c21` [ANTHRALIN]: the residual activity in data set [1] is 86.38%; in data set [2], 90.63%.

For `O=C1c2ccccc2C(=O)c2ccccc21` [ANTHRAQUINONE], the figures for the residual activity in data set [1] and in data set [2] were 96.98% and 78.8%, respectively.

Regarding `COc1cc(O)cc(OC)c1OC` [ANTIAROL], the residual activity amounted to 95.16% in data set [1] and 113% in data set [2].

Consider `Cc1cc(=O)n(-c2ccccc2)n1C` [ANTIPYRINE], for which the residual activity amounted to 79.71% in data set [1] and 82.49% in data set [2].

As for `O=C(O)C1CC([C@@H]2CCCCN2)CN2CCCCC12` (stereo partly specified) [APHYLLIC ACID], the figures for the residual activity in data set [1] and in data set [2] were 83.2% and 100.7%, respectively.

On to `CC(=O)Oc1ccc(-c2cc(=O)c3c(OC(C)=O)cc(OC(C)=O)cc3o2)cc1` [APIGENIN TRIACETATE], for which the residual activity in data set [1] is 92.99%; in data set [2], 94.69%.

On to `O=c1cc(-c2ccc(O)cc2)oc2cc(O)cc(O)c12` [APIGENIN], for which the residual activity in data set [1] amounted to 84.2%; in data set [2], 134.2%.

For `O=c1cc(-c2ccc(O)cc2)oc2cc(O[C@@H]3O[C@H](CO)[C@@H](O)[C@H](O)[C@H]3O)cc(O)c12` [APIGETRIN], the figures for the residual activity in data set [1] and in data set [2] were 204.4% and 134.6%, respectively.

As for `O=c1cc(-c2ccc(O)cc2)oc2cc(O[C@@H]3O[C@H](CO)[C@@H](O)[C@H](O)[C@H]3O[C@@H]3OC[C@](O)(CO)[C@H]3O)cc(O)c12` [APIIN], the residual activity in data set [1] amounted to 69.17%; in data set [2] it was 141.5%.

As to `C=CCc1cc(OC)c2c(c1OC)OCO2` [APIOL], the values for the residual activity in data set [1] and in data set [2] were 213.1% and 107.2%, respectively.

As to `OC[C@H]1O[C@@H](Oc2ccc(O)cc2)[C@H](O)[C@@H](O)[C@@H]1O` [ARBUTIN], the residual activity came out at 103.7% in data set [1] and 113.4% in data set [2].

Turning to `N=C(N)NCCCCNC(=N)N.O=S(=O)(O)O` [ARCAINE SULFATE], the residual activity is 78.37% in data set [1] and 96.72% in data set [2].

With `Br.COC(=O)C1=CCCN(C)C1` [ARECOLINE HYDROBROMIDE], the results for the residual activity in data set [1] and in data set [2] were 112.6% and 103.7%, respectively.

With `COc1cccc2c1cc([N+](=O)[O-])c1c(C(=O)O)cc3c(c12)OCO3` [ARISTOLOCHIC ACID], the residual activity in data set [1] is 76.91%; in data set [2], 107.6%.

With `CCCCCC(=O)Cc1cc(O)cc(O)c1C(=O)Oc1cc(CC(=O)CCCCC)c(C(=O)O)c(OC)c1` [ARTHONIOIC ACID], the values for the residual activity in data set [1] and in data set [2] were 52.3% and 96.29%, respectively.

With `c1ccc2c(Cc3c[nH]c4ccccc34)c[nH]c2c1` [ARUNDINE], the residual activity in data set [1] stood at 101.6%; in data set [2], 110.1%.

As to `c1cc2c(cc1[C@H]1OC[C@H]3[C@@H]1CO[C@H]3c1ccc3c(c1)OCO3)OCO2` [ASARININ], the residual activity was found to be 107.7% in data set [1] and 116.8% in data set [2].

On to `O=C1O[C@H]([C@@H](O)CO)C(O)=C1O` [ASCORBIC ACID], for which the figures for the residual activity in data set [1] and in data set [2] were 84.23% and 96.05%, respectively.

`CC1=C(/C=C/C(C)=C/C=C/C(C)=C/C=C/C=C(C)/C=C/C=C(C)/C=C/C2=C(C)C(=O)[C@@H](O)CC2(C)C)C(C)(C)C[C@H](O)C1=O` [ASTAXANTHIN]: the figures for the residual activity in data set [1] and in data set [2] were 95.25% and 87.19%, respectively.

Turning to `COc1ccc(CCN2CCC(Nc3nc4ccccc4n3Cc3ccc(F)cc3)CC2)cc1` [ASTEMIZOLE], the residual activity was found to be 127.5% in data set [1] and 97.68% in data set [2].

For the molecule `CC(C)NCC(O)COc1ccc(CC(N)=O)cc1` (stereo unspecified) [ATENOLOL], the residual activity in data set [1] turned out to be 78.26%; in data set [2] it was 93.81%.

For `O=C1c2ccccc2C(=O)c2c1ccc(O)c2O` [ATHRAQUINONES A], the values for the residual activity in data set [1] and in data set [2] were 84.81% and 93.11%, respectively.

Regarding `O=C1C(O)=C([C@H]2CC[C@H](c3ccc(Cl)cc3)CC2)C(=O)c2ccccc21` [ATOVAQUONE], the residual activity in data set [1] stood at 89.04%; in data set [2] it was 81.94%.

On to `COC(=O)c1c(C)cc(OC(=O)c2c(C)cc(O)c(C=O)c2O)c(C)c1O` [ATRANORIN], for which the residual activity in data set [1] is recorded as 122.9%; in data set [2], 109.7%.

With `CCNc1nc(Cl)nc(NC(C)C)n1` [ATRAZINE], the residual activity in data set [1] turned out to be 133.8%; in data set [2], 96.21%.

Take `CC1=CC(=O)C2=C(C)C[C@H](O)[C@@H]3[C@H](OC(=O)[C@H]3C)[C@H]12` [AUSTRICINE]: the residual activity is on record as 102.6% in data set [1] and 86.81% in data set [2].

Regarding `COc1ccc(C(=O)CC(=O)c2ccc(C(C)(C)C)cc2)cc1` [AVOBENZONE], the residual activity worked out at 124% in data set [1] and 103% in data set [2].

Regarding `C#CCCCCCCCCCCCC(O)CC(O)COC(C)=O` (stereo unspecified) [AVOCADYNE ACETATE], the residual activity in data set [1] was found to be 144.6%; in data set [2], 109.9%.

On to `C#CCCCCCCCCCCCC(O)CC(O)CO` (stereo unspecified) [AVOCADYNE], for which the residual activity was found to be 96.1% in data set [1] and 124.3% in data set [2].

For `C#CCCCCCCCCCCCC(=O)CC(O)COC(C)=O` (stereo unspecified) [AVOCADYNONE ACETATE], the residual activity in data set [1] worked out at 124.8%; in data set [2], 100.5%.

Consider `C=CCCCCCCCCCCCC(O)CC(O)COC(C)=O` (stereo unspecified) [AVOCATIN A], for which the residual activity is 125.1% in data set [1] and 99.6% in data set [2].

With `Nc1ncn([C@@H]2O[C@H](CO)[C@@H](O)[C@H]2O)c(=O)n1` [AZACITIDINE], the values for the residual activity in data set [1] and in data set [2] were 108.4% and 96.87%, respectively.

In the case of `C/C=C(\C)C(=O)O[C@H]1C[C@@H](OC(C)=O)[C@@]2(C(=O)OC)CO[C@H]3[C@@H](O)[C@@](C)([C@]45O[C@@]4(C)[C@@H]4C[C@H]5O[C@@H]5OC=C[C@@]54O)[C@H]4[C@]1(CO[C@]4(O)C(=O)OC)[C@@H]32` [AZADIRACHTIN A], the residual activity in data set [1] is on record as 51.12%; in data set [2] it was 74.42%.

In the case of `O=C(CCCN1CCN(c2ccccn2)CC1)c1ccc(F)cc1` [AZAPERONE], the residual activity came out at 88.32% in data set [1] and 108.2% in data set [2].

`[N-]=[N+]=CC(=O)OC[C@H](N)C(=O)O` [AZASERINE]: the figures for the residual activity in data set [1] and in data set [2] were 100.4% and 107.6%, respectively.
